Assays:
Echis ocellatus venom = test: Murine 'challenge then treat' model of envenoming, intraperitoneal; assay type: in vivo, CD-1 mice
Procedure: FIG. 18. […] Kaplan-Meier survival graphs for experimental animals (n=5) that received E. ocellatus venom (intraperitoneal administration of 90 μg; 5×iv. LD50), followed by delayed drug treatment intraperitoneally 15 mins later. […] For the DMPS and antivenom (D+AV) group, experimental animals received 120 μg of DMPS 15 mins after venom, and intravenous antivenom (168 μl of the E. ocellatus monospecific antivenom EchiTAbG, MicroPharm Ltd, UK) 1 hr after venom delivery. All DMPS data presented is taken from Albulescu et al. “Preclinical validation of a repurposed metal chelator as an early-intervention therapeutic for hemotoxic snakebite. Sci. Trans. Med. 12, eaay8314 (2020)”).
To better mimic a snakebite scenario, mice were initially challenged with venom, followed by the delayed administration of a single drug or a combination of drugs, as previously described. The venom challenge dose was increased to ensure complete lethality in the venom-only control group occurred within 4-5 hours. Groups of five male 18-22 g CD-1 mice (Charles River, UK) were injected with venom (100 μl final volume), followed by a drug dose that was scaled up accordingly after 15 min. […] Experimental animals were monitored for 24 h, with humane end points for euthanasia, and data recording, performed as described above. […]

[1] = tested on: Echis ocellatus venom metalloproteinase activity; test: In vitro snake venom metalloproteinase assay (quenched fluorogenic substrate), drug screen; assay type: biochemical; details: 10 μM drug, control drug
Procedure: FIG. 1. Inhibition of Echis ocellatus venom metalloproteinase activity by known matrix metalloproteinase inhibitors (MMPi) and rationally selected drugs based on their target site interactions. One microgram of whole venom per reaction was incubated with 10 μM of drug (dissolved in DMSO). Predicted metalloproteinase inhibitors were based on descriptors from a MedChemExpress commercial library and the literature. […] The percentage metalloproteinase activity was calculated from an endpoint read taken 45 minutes after substrate addition. The phospholipase inhibitor varespladib was included as a non-metalloproteinase inhibiting drug control.
The snake venom metalloproteinase activity in the presence of inhibitors or vehicle control (DMSO), was measured using a quenched fluorogenic substrate (ES010, R&D Biosystems). […] The substrate was suspended in reaction buffer (150 mM NaCl, 50 mM Tris-HCl pH 7.5). Reactions consisted of 1 μg/reaction of venom (1 μg in 15 μl PBS) co-incubated with 0.91 μl of 1 mM of inhibitor, both added using the VIAFLO 384 (Integra). […] Strong hits were determined as those with less than 20% metalloproteinase activity of the venom and mediocre hits between 20 and 50%. […]

| SMILES | survival (Echis ocellatus venom; 90 μg venom i.p. (5×i.v. LD50), 120 μg of each drug i.p. 15 min later, 24 h monitoring, n=5) | adverse effects in drug-only controls (Echis ocellatus venom; drug only, i.p., 24 hour monitoring) | inhibitory effect against venom metalloproteinase activity [1] |
| --- | --- | --- | --- |
| O=S(=O)(O)CC(S)CS (stereo not drawn) [DMPS, 2,3-dimercapto-1-propanesulfonic acid] | only two of the five experimental animals survived | None of the animals receiving DMPS alone displayed any adverse effects | – |
| CCc1c(C(=O)C(N)=O)c2c(OCC(=O)O)cccc2n1Cc1ccccc1 [varespladib] | – | – | no inhibitory effect |

Reference: US12285408B2, “Methods and compositions for the treatment of snake bite” (priority 2021, dated 2025)
